From patent US12673915B2, “Precursor compound of hexahydro-beta-acid component compound, feed composition and use thereof” (WISORIG TECHNOLOGIES PTE. LIMITED, priority 2020, dated 2026)

Assays:
[1] = tested on: Duroc×Landrace×Yorkshire cross-bred bacon-type piglets; assay: Effect on the production performance of hogs (14-day feeding trial); assay type: in vivo; conditions: 25 ppm in feed; for ADFI (average daily feed intake) / ADG (average daily weight gain) / FCR (feed conversion ratio): 14 days, piglets
Text: 480 67-day-old Duroc×Landrace×Yorkshire cross-bred bacon-type piglets with similar body weight, were randomly divided into 16 groups, with 3 replications per group, 10 piglets per replication and equal amounts of males and females. The pig pen and tools were sterilized before the trial. In the trial, the piglets were kept in separate regions in the same pig pen under the same feeding and management conditions, were given a free hand with the feed and the water, and were fed twice a day. The groups were known as control group (group 1) and test groups 2 to 16. The piglets of the control group were fed with basal formula feed only, while those of the test groups 2 to 16 were respectively fed with basal formula feed mixed with different additives, wherein the active ingredient of the additives was a hexahydro-β-acid compound or a prodrug of a hexahydro-β-acid compound provide herein, and the content thereof in the feed was 5 or 25 ppm as shown in Table 4.
The trial lasted for 14 days. During the trial, each test group was not fed with other antioxidants or growth enhancers. On the 14th day, each test group was fed with no feed but water for 12 hours, and the piglets of each replication as one unit were weighed to calculate the average daily feed intake (ADFI, g/d per piglet), the average daily weight gain (ADG, g/d per piglet), and the feed conversion ratio (FCR). Average daily feed intake=(Total weight of provided feed−Weight of residual feed)/(Days of the trial×Number of piglets in each replicate) Average daily weight gain=(final average body weight−initial average body weight)/Days of the trial Feed conversion ratio=average daily feed intake/average daily weight gain

[2] = Long-term stability in feeds at room temperature (25° C.±2° C., RH 60%±10%; HPLC); assay type: physicochemical; conditions: for stability / content in feeds at room temperature (in words): during the testing period
Text: Feeds: ZUSF's premixed feed (A mixture of crushed Feed A and crushed Feed B at a weight ratio of 2:1, wherein Feed A was a 5.33% multi-premixed feed for piglets from ZUSF's Hao-Ru-Zhen-Jing, and B was a 2.67% multi-premixed feed for piglets from ZUSF's Hao-Ru-Zhen-Jing); creep feed for piglets from CP FEED; INSIGHTER's feed for broiler; 4% premixed feed from GUANGDONG CO-POWER.
Preparation of a sample of 1% premix of Ingredient: 1 g of an ingredient was respectively weighed out and evenly mixed with 99 g of corncob meal in a mixer to give a sample of 1% premix of an ingredient.
Preparation of a sample of 500 ppm feed of an ingredient: The sample of 1% premix of an ingredient was diluted step by step using the ZUSF's remixed feed to 5000 ppm and 500 ppm to give the sample of 500 ppm feed of an ingredient for later testing.
Preparation of a sample of 100 ppm feed of an ingredient: sample of 1% premix of an ingredient was diluted step by step using the creep feed for piglets from CP FEED to 1000 ppm and then 100 ppm to give the sample of 100 ppm feed of an ingredient for later testing.
Preparation of a sample of 100 ppm feed of an ingredient: The sample of 1% premix of an ingredient was diluted step by step using the INSIGHTER's feed for broiler to 1000 ppm and 100 ppm to give the sample of 100 ppm feed of an ingredient for later testing.
Preparation of a sample of 2000 ppm feed of an ingredient: The sample of 1% premix of an ingredient was diluted step by step using the 4% premixed feed from GUANGDONG CO-POWER to 5000 ppm and 2000 ppm to give the sample of 2000 ppm feed of an ingredient for later testing.
Method: Three replications of each feed sample were tested at the condition of 25° C.±2° C. and RH 60%±10%, wherein the replications of each feed sample were sampled in parallel for HPLC analysis on day 5, day 10, day 15, day 30, day 60, and day 90.
25.0 mg of an ingredient was accurately weighed out and dissolved in an appropriate amount of methanol or n-hexane by ultrasonication. The solution was then transferred to a volumetric flask and diluted to 50 mL to give a 500 ppm (by wt.) stock solution. The samples from the stock solution were diluted with methanol or n-hexane respectively to a concentration of 10 ppm, 25 ppm, 50 ppm, 100 ppm, and 250 ppm of work solution, and then the working solutions were filtered by 0.22 μm organic membranes. Between the concentration of a sample and the response value of HPLC peak area thereof, the linearity was adjusted and detected to give a standard curve.
5.0000 g of the samples sampled at different time intervals were respectively accurately weighed out, and dissolved in 25 mL of methanol or n-hexane by ultrasonication for 10 minutes. The resulting solutions were filtered by organic membranes and then analyzed by HPLC.
• Equipment: Waters e2695 with PDA detector. • Mobile phase: 0.02% phosphoric acid:methanol=5:95 (v:v). • Column: Symmetry Cis column (Waters; 250 mm×4.6 mm, 5 μm). • Wavelength: 235 nm. • Temperature of the Column: 25° C. • Injection volume: 10 μL. • Flow rate: 1 mL/min. Normal Phase Chromatography: • Equipment: Shimadzu LC-14C/SPD-15C. • Column: SuperSil NH2 column ([…]; 250 mm×4.6 mm). • Mobile phase: n-hexane:isopropanol=60:40 (v:v). • Wavelength: 235 nm. • Temperature of the Column: 25° C. • Injection volume: 20 μL. • Flow rate: 1 mL/min. 3: Results

[3] = 100 ppm in INSIGHTER's broiler feed, Day 5
[4] = 100 ppm in INSIGHTER's broiler feed, Day 15
[5] = 100 ppm in INSIGHTER's broiler feed, Day 30
[6] = 100 ppm in INSIGHTER's broiler feed, Day 60
[7] = 100 ppm in INSIGHTER's broiler feed, Day 90
[8] = 100 ppm in creep feed for piglets from CP FEED, Day 5
[9] = 100 ppm in creep feed for piglets from CP FEED, Day 15
[10] = 100 ppm in creep feed for piglets from CP FEED, Day 30
[11] = 100 ppm in creep feed for piglets from CP FEED, Day 60
[12] = 100 ppm in creep feed for piglets from CP FEED, Day 90
[13] = 500 ppm in ZUSF's premixed feed, Day 15
[14] = 500 ppm in ZUSF's premixed feed, Day 30
[15] = 500 ppm in ZUSF's premixed feed, Day 60
[16] = 500 ppm in ZUSF's premixed feed, Day 90

Row | Compound | ADFI (average daily feed intake) [1] [g/d per piglet] | ADG (average daily weight gain) [1] [g/d per piglet] | FCR (feed conversion ratio) [1] | Residual amount of active ingredient [2, 3] [%] | Residual amount of active ingredient [2, 4] [%] | Residual amount of active ingredient [2, 5] [%] | Residual amount of active ingredient [2, 6] [%] | Residual amount of active ingredient [2, 8] [%] | Residual amount of active ingredient [2, 9] [%] | Residual amount of active ingredient [2, 10] [%] | Residual amount of active ingredient [2, 11] [%] | Residual amount of active ingredient [2, 12] [%] | also measured
1 | CCCC(=O)OC1=C(CCC(C)C)C(=O)C(CCC(C)C)(CCC(C)C)C(O)=C1C(=O)C(C)CC (centres unmarked) [Hexahydro-adlupulone mono-butyrate, hexahydro-adlupulone mono-butyrate] | 883 | 398 | 2.221 |  |  |  |  |  |  |  |  |  | 
2 | CCC(=O)OC1=C(CCC(C)C)C(=O)C(CCC(C)C)(CCC(C)C)C(O)=C1C(=O)C(C)CC (centres unmarked) [Hexahydro-adlupulone mono-propionate, hexahydro-adlupulone mono-propionate] | 876 | 393 | 2.228 |  |  |  |  |  |  |  |  |  | 
3 | CCC(C)C(=O)C1=C(O)C(CCC(C)C)(CCC(C)C)C(=O)C(CCC(C)C)=C1O (centres unmarked) [Hexahydro-adlupulone, reference compound] | 860 | 384 | 2.240 |  |  |  |  |  |  |  |  |  | 
4 | CCCC(=O)OC1=C(CCC(C)C)C(=O)C(CCC(C)C)(CCC(C)C)C(OC(=O)CCC)=C1C(=O)C(C)C [Hexahydro-colupulone di-butyrate, hexahydro-colupulone di-butyrate] | 950 | 413 | 2.298 |  |  |  |  |  |  |  |  |  | 
5 | CCC(=O)OC1=C(CCC(C)C)C(=O)C(CCC(C)C)(CCC(C)C)C(OC(=O)CC)=C1C(=O)C(C)C [Hexahydro-colupulone di-propionate, hexahydro-colupulone di-propionate] | 926 | 415 | 2.231 |  |  |  |  |  |  |  |  |  | 
6 | CCCCCCCCCCCC(=O)OC1=C(CCC(C)C)C(=O)C(CCC(C)C)(CCC(C)C)C(O)=C1C(=O)C(C)C [hexahydro-colupulone mono-laurate] | 918 | 383 | 2.399 | 99.63 | 99.65 | 99.68 | 98.68 |  |  |  |  |  | effects on the performance of piglets compared with mono-acetate and mono-butyrate (in words) [1]: not as significant; Residual amount of active ingredient [2, 7]: 98.47%; Residual amount of active ingredient ([2]; 1000 ppm in INSIGHTER's broiler feed, Day 5): 101.19%; Residual amount of active ingredient ([2]; 1000 ppm in INSIGHTER's broiler feed, Day 15): 101.72%; Residual amount of active ingredient ([2]; 1000 ppm in INSIGHTER's broiler feed, Day 30): 98.60%; Residual amount of active ingredient ([2]; 1000 ppm in INSIGHTER's broiler feed, Day 60): 97.85%; Residual amount of active ingredient ([2]; 1000 ppm in INSIGHTER's broiler feed, Day 90): 95.26%
7 | disodium salt of hexahydro-colupulone mono-phosphate [reference compound] |  |  |  | 86.64 | 83.77 | 81.32 | 76.53 | 66.59 | 58.39 | 55.80 | 47.76 | 44.33 | Residual amount of active ingredient [2, 7]: 62.97%
8 | hexahydro-colupulone mono-hexanoate | 913 | 383 | 2.386 | 98.90 | 97.72 | 96.58 | 95.77 | 102.18 | 96.14 | 95.30 | 95.20 | 95.55 | effects on the performance of piglets compared with mono-acetate and mono-butyrate (in words) [1]: not as significant; Residual amount of active ingredient [2, 13]: 87.50%; Residual amount of active ingredient [2, 14]: 89.00%; Residual amount of active ingredient [2, 15]: 86.07%; Residual amount of active ingredient [2, 16]: 83.77%; stability / content in feeds at room temperature (in words) [2]: relatively poor in some of the feeds
9 | hexahydro-colupulone mono-pentanoate |  |  |  | 98.84 | 98.12 | 97.73 | 96.64 | 100.94 | 98.82 | 96.92 | 96.01 | 95.61 | Residual amount of active ingredient [2, 13]: 94.29%; Residual amount of active ingredient [2, 14]: 94.80%; Residual amount of active ingredient [2, 15]: 88.17%; Residual amount of active ingredient [2, 16]: 89.14%; stability / content in feeds at room temperature (in words) [2]: relatively poor in some of the feeds
